{"source": "patent EP4268823A1", "about": "“COMPOUND FOR TREATING NEUROINFLAMMATION” (Universitätsklinikum Hamburg-Eppendorf, priority 2022, dated 2023)", "key": {"G9a": {"target": "T1, G9a (Homo sapiens, UniProt Q96KQ7)", "T1 construct": "H3K9me2 immunostaining and quantification in response to ferroptosis induction with erastin in hiPSC neurons; endogenous in cells; host or cells: neurons differentiated from human iPSCs (ZIPi013-B)", "T1 sequence (Q96KQ7 1-1210)": "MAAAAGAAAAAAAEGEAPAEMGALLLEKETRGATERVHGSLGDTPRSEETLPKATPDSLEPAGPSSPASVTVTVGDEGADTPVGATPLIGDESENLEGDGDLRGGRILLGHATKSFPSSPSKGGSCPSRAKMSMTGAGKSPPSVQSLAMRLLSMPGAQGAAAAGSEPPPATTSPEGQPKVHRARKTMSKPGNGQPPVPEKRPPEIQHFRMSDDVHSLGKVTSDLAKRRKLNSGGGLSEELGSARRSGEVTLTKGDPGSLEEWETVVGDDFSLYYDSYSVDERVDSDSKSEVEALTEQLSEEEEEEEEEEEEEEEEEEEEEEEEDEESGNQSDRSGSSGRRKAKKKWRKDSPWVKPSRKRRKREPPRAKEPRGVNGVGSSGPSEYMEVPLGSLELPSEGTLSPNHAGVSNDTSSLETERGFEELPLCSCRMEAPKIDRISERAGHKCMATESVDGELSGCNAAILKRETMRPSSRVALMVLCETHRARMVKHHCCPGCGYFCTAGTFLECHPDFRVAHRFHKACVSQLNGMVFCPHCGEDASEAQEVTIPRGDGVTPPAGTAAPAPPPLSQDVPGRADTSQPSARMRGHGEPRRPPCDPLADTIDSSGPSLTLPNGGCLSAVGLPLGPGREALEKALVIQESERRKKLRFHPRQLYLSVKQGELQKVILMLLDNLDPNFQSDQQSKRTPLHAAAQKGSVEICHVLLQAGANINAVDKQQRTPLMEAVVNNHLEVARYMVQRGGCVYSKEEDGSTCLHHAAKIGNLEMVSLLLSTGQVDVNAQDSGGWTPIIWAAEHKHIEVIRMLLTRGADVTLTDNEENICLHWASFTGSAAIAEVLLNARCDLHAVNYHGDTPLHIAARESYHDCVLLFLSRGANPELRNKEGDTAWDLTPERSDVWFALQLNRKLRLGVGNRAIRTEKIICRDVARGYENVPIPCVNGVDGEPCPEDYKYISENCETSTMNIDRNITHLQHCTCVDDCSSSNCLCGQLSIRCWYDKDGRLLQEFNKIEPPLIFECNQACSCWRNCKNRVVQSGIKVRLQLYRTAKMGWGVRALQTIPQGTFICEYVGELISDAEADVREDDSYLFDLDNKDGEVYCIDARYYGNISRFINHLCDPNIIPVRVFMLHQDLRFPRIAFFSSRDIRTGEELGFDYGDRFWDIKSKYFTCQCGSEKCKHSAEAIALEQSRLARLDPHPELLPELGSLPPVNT", "test": "H3K9me2 immunostaining in hiPSC neurons after erastin", "format": "cell-based", "conditions": "erastin + UNC0642", "description": "(§1) Human iPSCs (ZIPi013-B) (83) were maintained under feeder-free conditions on Matrigel (Corning)-coated plates in mTeSR1 medium (Stem Cell Technologies, cat. no. 85850). For neuronal induction, iPSCs were dissociated with Accutase and seeded at a density of 3 × 10^6 cells per well on AggreWell800 plates (10,000 cells per embryoid body (EB), Stem Cell Technologies) in SMADi Neural Induction Medium (SMADi NIM, Stem Cell Technologies, cat. no. 08582) supplemented with […] (Stem Cell Technologies, cat. no. 72302). On day 6, EBs were harvested and cultivated on Matrigel-coated plates in SMADi NIM for 12 days. Newly formed neural rosettes were manually picked and cultured for another 4 days. In order to release neural precursor cells (NPCs), neural rosettes were dissociated with Accutase and were maintained for several passages at high density in Neural Progenitor Medium (Stem Cell Technologies, cat. no. 05833) on Matrigel-coated plates. HiPSC-derived NPCs were differentiated into neurons as previously described (84, 85) with some modifications. Briefly, NPCs were seeded at a density of 1 × 10^5 cells per cm^2 in Neural Progenitor Medium onto Matrigel-coated plates. […]\nImmunocytochemistry was performed as described previously (15). […] Immunostainings were analyzed with a Zeiss LSM 700 confocal microscope."}, "[1]": {"test_system": "ferroptosis-related genes", "test": "mRNA expression of ferroptosis-related genes in erastin-treated hiPSC-neurons", "format": "cell-based", "conditions": "erastin-treated human neurons ± UNC0642", "description": "as §1\nRNA was extracted using RNeasy Mini Kit (Qiagen) and subsequently reverse-transcribed to complementary DNA with the RevertAid H Minus First Strand cDNA Synthesis Kit (Thermo Fisher Scientific) according to the manufacturer's instructions. Gene expression was analyzed by real-time PCR performed in an ABI Prism 7900 HT Fast Real-Time PCR System (Applied Biosystems) using TaqMan Gene Expression Assays (Thermo Fisher Scientific). Gene expression was calculated as 2-ΔCt relative to Tbp as the endogenous control."}}}
{"molecule": "COc1cc2c(NC3CCN(C(C)C)CC3)nc(N3CCC(F)(F)CC3)nc2cc1OCCCN1CCCC1", "note": "[UNC0642, 2-(4,4-difluoropiperidin-1-yl)-6-methoxy-N-[1-(propan-2-yl)piperidin-4-yl]-7-[3-(pyrrolidin-1-yl)propoxy]quinazolin-4-amine]", "values": [{"measurement": "increase of H3K9me2 levels in response to erastin-induced ferroptosis", "setting": "G9a", "value": "rescued"}, {"measurement": "mRNA expression of GPX4", "setting": "[1]", "value": "significant upregulation"}, {"measurement": "mRNA expression of Gclc", "setting": "[1]", "value": "significant upregulation"}, {"measurement": "mRNA expression of SLC7A11", "setting": "[1]", "value": "highly upregulated"}]}
